ChEMBL document CHEMBL1143372, “Synthesis of Pro-Xylane: a new biologically active C-glycoside in aqueous media” (2009)

What was measured:
Assay type in all cases: functional, Homo sapiens
NHDF [1] = experiment: Antiaging activity in NHDF assessed as D-[6-H3]-glucosamine incorporation into glycosaminoglycan fraction at 0.1 mM after 72 hrs relative to control
NHDF [2] = experiment: Antiaging activity in NHDF assessed as D-[6-H3]-glucosamine incorporation into glycosaminoglycan fraction at 1 mM after 72 hrs relative to control
NHDF [3] = experiment: Antiaging activity in NHDF assessed as D-[6-H3]-glucosamine incorporation into glycosaminoglycan fraction at 0.3 mM after 72 hrs relative to control
NHDF [4] = experiment: Antiaging activity in NHDF assessed as D-[6-H3]-glucosamine incorporation into glycosaminoglycan fraction at 2 mM after 72 hrs relative to control
NHDF [5] = experiment: Antiaging activity in NHDF assessed as D-[6-H3]-glucosamine incorporation into glycosaminoglycan fraction at 0.4 mM after 72 hrs relative to control
NHDF [6] = experiment: Antiaging activity in NHDF assessed as D-[6-H3]-glucosamine incorporation into glycosaminoglycan fraction at 0.08 mM after 72 hrs relative to control
NHDF [7] = experiment: Antiaging activity in NHDF assessed as D-[6-H3]-glucosamine incorporation into glycosaminoglycan fraction at 10 mM after 72 hrs relative to control
NHDF [8] = experiment: Antiaging activity in NHDF assessed as D-[6-H3]-glucosamine incorporation into glycosaminoglycan fraction at 3 mM after 72 hrs relative to control
NHDF [9] = experiment: Antiaging activity in NHDF assessed as D-[6-H3]-glucosamine incorporation into glycosaminoglycan fraction at 0.5 mM after 72 hrs relative to control
NHDF [10] = experiment: Antiaging activity in NHDF assessed as D-[6-H3]-glucosamine incorporation into glycosaminoglycan fraction at 0.02 mM after 72 hrs relative to control

Q: Which Activity (NHDF [1]) does the source give for O=C(C[C@@H]1OC[C@@H](O)[C@H](O)[C@H]1O)c1ccccc1 here?
A: 120%

Q: What about the Activity (NHDF [2]) of the same compound?
A: 95%

Q: What about the Activity (NHDF [3]) of the same compound?
A: 102%

Q: Which Activity (NHDF [4]) does the source give for O[C@@H]1[C@H](O)[C@@H](O)OC[C@H]1O [LYXOSE] here?
A: 86%

Q: What about the Activity (NHDF [5]) of the same compound?
A: 102%

Q: And the Activity (NHDF [6])?
A: 90%

Q: For CC(=O)C[C@@H]1OC[C@@H](O)[C@H](O)[C@H]1O, which Activity (NHDF [4]) is on record?
A: 141%

Q: And the Activity (NHDF [5])?
A: 110%

Q: And the Activity (NHDF [7])?
A: 161%

Q: With CC(=O)C[C@@H]1O[C@H](CO)[C@H](O)[C@H](O)[C@H]1O as the compound, how does the Activity (NHDF [7]) read?
A: 99%

Q: And the Activity (NHDF [8])?
A: 119%

Q: And the Activity (NHDF [2])?
A: 136%

Q: With CC(O)C[C@@H]1OC[C@@H](O)[C@H](O)[C@H]1O (stereo partly drawn) as the compound, how does the Activity (NHDF [8]) read?
A: 218%

Q: And the Activity (NHDF [2])?
A: 169%

Q: What about the Activity (NHDF [3]) of the same compound?
A: 139%

Q: For O=C[C@H](O)[C@@H](O)[C@H](O)CO [XYLOSE], which Activity (NHDF [9]) is on record?
A: 52%

Q: What about the Activity (NHDF [1]) of the same compound?
A: 85%

Q: And the Activity (NHDF [10])?
A: 106%
